Data as given in patent US4097595A, “7-Amino-thiazolyl acetamido cephalosporanic acids” (Roussel Uclaf, priority 1976, dated 1978).
Values after ≈ are worked out from the molar mass of the structure shown. Read-outs that look alike come from different tables or passages of the source.

What was measured:
Format in all cases: cell-based
[1] = test system: Staphylococcus aureus UC 1 061 (penicillin sensible); assay: MIC, dilution method in liquid media, Staphylococcus aureus UC 1061, penicillin sensible; settings: penicillin sensible
Method: (§1) A series of tubes were prepared with the same quantity of sterile nutrive media and increasing quantities of the test product was distributed to each tube. Then, each tube was seeded with a bacterial strain and after incubation at 37° C for 24 or 48 hours, the inhibition of the growth was determined by transillumination which permitted determination of the minimum inhibitory concentrations (M.I.C.) in μg/ml.

[2] = test system: Staphylococcus aureus UC 1128 (penicillin resistant); assay: MIC, dilution method in liquid media, Staphylococcus aureus UC 1128, penicillin resistant
Method: as §1

[3] = test system: Streptococcus faecalis 5 432; assay: MIC, dilution method in liquid media, Streptococcus faecalis 5 432; settings: read-out: MIC
Method: as §1

[4] = test system: Escherichia Coli UC 1 020; assay: MIC, dilution method in liquid media, Escherichia Coli UC 1 020; settings: read-out: MIC
Method: as §1

[5] = test system: Escherichia Coli UC 1 261; assay: MIC, dilution method in liquid media, Escherichia Coli UC 1 261; settings: read-out: MIC
Method: as §1

[6] = test system: Klebsiella pneumoniae 52 145; assay: MIC, dilution method in liquid media, Klebsiella pneumoniae 52 145
Method: as §1

[7] = test system: Proteus mirabilis (indol); assay: MIC, dilution method in liquid media, Proteus mirabilis (indol)
Method: as §1

[8] = test system: Staphylococcus aureus 54 146; assay: MIC, dilution method in liquid media, Staphylococcus aureus 54 146
Method: as §1

[9] = test system: Escherichia Coli (T) 0 26 B 6; assay: MIC, dilution method in liquid media, Escherichia Coli (T) 026 B6
Method: as §1

[10] = test system: Streptococcus pyogenes A 561; assay: MIC, dilution method in liquid media, Streptococcus pyogenes A 561
Method: as §1

[11] = test system: Escherichia Coli R 55 123 D; assay: MIC, dilution method in liquid media, Escherichia Coli R 55 123 D; settings: COLIR55123D, read-out: MIC
Method: as §1

[12] = test system: Salmonella Typhimurium; assay: MIC, dilution method in liquid media, Salmonella Typhimurium; settings: Salmonella enterica, strain 420 (Tables II, IV)
Method: as §1

[13] = test system: Bacillus subtilis ATCC 6 633; assay: MIC, dilution method in liquid media, Bacillus subtilis ATCC 6 633
Method: as §1

[14] = test system: Staphylococcus aureus ATCC 6 538; assay: MIC, dilution method in liquid media, Staphylococcus aureus ATCC 6 538
Method: as §1

[15] = test system: Streptococcus faecalis 99 F 74; assay: MIC, dilution method in liquid media, Streptococcus faecalis 99 F 74; settings: Enterococcus faecalis
Method: as §1

[16] = test system: Serratia RG 2 532; assay: MIC, dilution method in liquid media, Serratia RG 2 532
Method: as §1

[17] = Staphylococcus aureus, 54146, 24 h, read-out: MIC

Compound | MIC ([1]; UC1, 24 H) | MIC ([1]; UC1, 48 H) | MIC ([2]; UC1128, 24 H) | MIC ([2]; UC1128, 48 H) | MIC ([4]; UC1, 24 h) | MIC ([4]; UC1, 48 h) | MIC ([5]; UC1, 24 h) | MIC ([5]; UC1, 48 h) | MIC ([7]; 24 H, A 235, read-out: MIC) | MIC [8, 17] | MIC ([9]; 24 h) | MIC ([9]; 48 h) | MIC ([10]; A561, 24 h) | MIC ([10]; A561, 48 h) | MIC ([12]; 24 H) | MIC ([13]; ATCC6, 24 h) | MIC ([13]; ATCC6, 48 h) | MIC ([14]; ATCC6, 24 h, read-out: MIC) | further results
Nc1nc(CC(=O)NC2C(=O)N3C(C(=O)O)=C(CSC(=O)c4ccco4)CS[C@H]23)cs1 (stereo partly shown) [Example 5, 7-[2-(2-amino-4-thiazolyl)-acetamido]-3-[{(2-furyl)-carbonyl}thiomethyl]-ceph-3-eme-4-carboxylic acid] | 0.5 µg/mL (≈ 1.04 µM) | 1 µg/mL (≈ 2.08 µM) | 1 µg/mL (≈ 2.08 µM) | 2 µg/mL (≈ 4.16 µM) | 10 µg/mL (≈ 20.8 µM) | 10 µg/mL (≈ 20.8 µM) | 2 µg/mL (≈ 4.16 µM) | 2 µg/mL (≈ 4.16 µM) | 2 µg/mL (≈ 4.16 µM) | 1 µg/mL (≈ 2.08 µM) | 10 µg/mL (≈ 20.8 µM) | 10 µg/mL (≈ 20.8 µM) | 0.1 µg/mL (≈ 0.208 µM) | 0.1 µg/mL (≈ 0.208 µM) | 10 µg/mL (≈ 20.8 µM) | 0.2 µg/mL (≈ 0.416 µM) | 0.2 µg/mL (≈ 0.416 µM) | 0.5 µg/mL (≈ 1.04 µM) | MIC ([3]; Enterococcus faecalis, 5432, 24 h): 5 µg/mL (≈ 10.4 µM); MIC ([3]; Enterococcus faecalis, 5432, 48 h): 40 µg/mL (≈ 83.2 µM); MIC ([6]; Klebsiella pneumoniae, 52145, 24 h): 0.4 µg/mL (≈ 0.832 µM); MIC ([6]; Klebsiella pneumoniae, 52145, 48 h, read-out: MIC): 1 µg/mL (≈ 2.08 µM); MIC ([7]; 48 H, A 235, read-out: MIC): 2 µg/mL (≈ 4.16 µM); MIC ([8]; Staphylococcus aureus, 54146, 48 h, read-out: MIC): 1 µg/mL (≈ 2.08 µM); MIC ([11]; 24 h): 10 µg/mL (≈ 20.8 µM); MIC ([11]; 48 h): 10 µg/mL (≈ 20.8 µM); MIC ([14]; ATCC6, 48 h, read-out: MIC): 1 µg/mL (≈ 2.08 µM)
CCC(=O)SCC1=C(C(=O)O)N2C(=O)C(NC(=O)Cc3csc(N)n3)[C@H]2SC1 (stereo partly shown) [Example 6, 7-[2-(2-amino-4-thiazolyl)-acetamido]-3-propionylthiomethyl-ceph-3-eme-4-carboxylic acid] | 0.6 µg/mL (≈ 1.36 µM) | 0.6 µg/mL (≈ 1.36 µM) | 1 µg/mL (≈ 2.26 µM) | 1 µg/mL (≈ 2.26 µM) | 10 µg/mL (≈ 22.6 µM) | 10 µg/mL (≈ 22.6 µM) | 10 µg/mL (≈ 22.6 µM) | 10 µg/mL (≈ 22.6 µM) | 10 µg/mL (≈ 22.6 µM) | 1 µg/mL (≈ 2.26 µM) | 40 µg/mL (≈ 90.4 µM) | 40 µg/mL (≈ 90.4 µM) | 0.2 µg/mL (≈ 0.452 µM) | 0.2 µg/mL (≈ 0.452 µM) | 5 µg/mL (≈ 11.3 µM) | 0.1 µg/mL (≈ 0.226 µM) | 0.1 µg/mL (≈ 0.226 µM) | 0.2 µg/mL (≈ 0.452 µM) | MIC ([6]; Klebsiella pneumoniae, 52145, 24 h, read-out: MIC): 3 µg/mL (≈ 6.78 µM); MIC ([6]; Klebsiella pneumoniae, 52145, 48 h): 5 µg/mL (≈ 11.3 µM); MIC ([7]; 48 h): 20 µg/mL (≈ 45.2 µM); MIC ([8]; Staphylococcus aureus, 54146, 48 h): 2 µg/mL (≈ 4.52 µM); MIC ([12]; 48 H): 5 µg/mL (≈ 11.3 µM); MIC ([14]; ATCC6, 48 h): 0.4 µg/mL (≈ 0.904 µM); MIC ([15]; 99F74, 24 h): 20 µg/mL (≈ 45.2 µM); MIC ([15]; 99F74, 48 h, read-out: MIC): 40 µg/mL (≈ 90.4 µM); MIC ([16]; RG2532, 24 h): 10 µg/mL (≈ 22.6 µM); MIC ([16]; RG2532, 48 h): 10 µg/mL (≈ 22.6 µM)
